Patent US7880007B2, “Bicyclic substituted phenyl piperidine modulators of muscarinic receptors” (Vertex Pharmaceuticals Incorporated, priority 2004, dated 2011)

Legend:
Assay type in all cases: cell-based
M4 muscarinic receptor = target: T1, M4 muscarinic receptor (Homo sapiens, UniProt P08173); assay: Functional mobilization of intracellular calcium (FLIPR), M4-CHO cells; conditions: for M4 Activity: M4-CHO cells, calcium mobilization (FLIPR)
T1 construct: expressed in transfected cells; host or cells: CHO (M4-CHO)
T1 sequence (P08173 1-479): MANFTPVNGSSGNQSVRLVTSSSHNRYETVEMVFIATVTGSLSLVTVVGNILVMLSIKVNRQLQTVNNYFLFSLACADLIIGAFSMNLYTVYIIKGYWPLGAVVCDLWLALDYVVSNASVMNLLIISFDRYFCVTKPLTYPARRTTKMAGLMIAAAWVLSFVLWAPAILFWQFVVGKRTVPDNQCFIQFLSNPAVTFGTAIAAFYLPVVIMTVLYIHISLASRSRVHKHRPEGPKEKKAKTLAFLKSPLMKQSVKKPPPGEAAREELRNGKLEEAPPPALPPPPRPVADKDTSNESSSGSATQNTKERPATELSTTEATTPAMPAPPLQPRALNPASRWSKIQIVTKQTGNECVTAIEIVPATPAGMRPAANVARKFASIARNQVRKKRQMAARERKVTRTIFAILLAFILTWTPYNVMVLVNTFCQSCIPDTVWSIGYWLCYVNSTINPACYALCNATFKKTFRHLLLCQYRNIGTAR
In short: (§1)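 FLIPR fluorescence (ex 488, em 540 nm) recorded 60 sec after compound addition to dye-loaded CHO cells. Agonist mode: compound alone. Antagonist mode: 15 min compound pre-incubation, then carbachol at EC80, or co-application. Efficacy expressed as % of maximal carbachol response.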

M2 muscarinic receptor = target: T2, M2 muscarinic receptor (Homo sapiens, UniProt P08172); assay: Functional mobilization of intracellular calcium (FLIPR), M2-CHO cells; conditions: for M2 Activity: M2-CHO cells, calcium mobilization (FLIPR)
T2 construct: expressed in transfected cells; host or cells: CHO (M2-CHO)
T2 sequence (P08172 1-466): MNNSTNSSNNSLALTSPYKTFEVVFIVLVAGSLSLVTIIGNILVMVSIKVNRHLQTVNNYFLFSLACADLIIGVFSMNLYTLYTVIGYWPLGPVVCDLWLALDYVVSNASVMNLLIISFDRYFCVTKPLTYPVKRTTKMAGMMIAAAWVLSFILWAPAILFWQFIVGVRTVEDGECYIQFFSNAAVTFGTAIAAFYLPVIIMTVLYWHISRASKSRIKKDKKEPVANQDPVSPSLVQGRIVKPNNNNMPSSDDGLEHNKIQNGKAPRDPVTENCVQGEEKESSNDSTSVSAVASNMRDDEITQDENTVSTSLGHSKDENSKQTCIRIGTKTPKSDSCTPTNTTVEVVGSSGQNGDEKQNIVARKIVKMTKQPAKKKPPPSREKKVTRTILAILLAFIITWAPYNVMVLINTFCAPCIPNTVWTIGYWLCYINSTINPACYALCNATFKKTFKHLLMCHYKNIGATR
In short: as §1

M3 muscarinic receptor = target: T3, M3 muscarinic receptor (Homo sapiens, UniProt P20309); assay: Functional mobilization of intracellular calcium (FLIPR), M3-CHO cells; conditions: for M3 Activity: M3-CHO cells, calcium mobilization (FLIPR)
T3 construct: expressed in transfected cells; host or cells: CHO (M3-CHO)
T3 sequence (P20309 whole entry): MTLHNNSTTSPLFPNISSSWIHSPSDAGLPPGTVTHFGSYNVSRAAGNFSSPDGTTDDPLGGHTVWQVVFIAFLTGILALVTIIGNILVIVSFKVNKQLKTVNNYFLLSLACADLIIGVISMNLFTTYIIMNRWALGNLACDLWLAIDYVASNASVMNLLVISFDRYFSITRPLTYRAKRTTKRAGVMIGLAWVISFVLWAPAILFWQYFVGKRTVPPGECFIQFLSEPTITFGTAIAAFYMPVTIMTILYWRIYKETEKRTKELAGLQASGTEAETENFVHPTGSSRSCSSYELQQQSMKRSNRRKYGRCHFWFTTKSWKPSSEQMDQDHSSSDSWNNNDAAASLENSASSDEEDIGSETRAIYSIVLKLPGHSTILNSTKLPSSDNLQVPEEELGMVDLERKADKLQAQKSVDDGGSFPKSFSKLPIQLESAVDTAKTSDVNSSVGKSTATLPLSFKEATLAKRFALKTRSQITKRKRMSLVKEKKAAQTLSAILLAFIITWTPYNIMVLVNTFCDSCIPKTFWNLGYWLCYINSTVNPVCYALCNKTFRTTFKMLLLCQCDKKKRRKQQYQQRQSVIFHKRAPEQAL
In short: as §1

M1 muscarinic receptor = target: T4, M1 muscarinic receptor (Homo sapiens, UniProt P11229); assay: Functional mobilization of intracellular calcium (FLIPR), M1-CHO cells; conditions: for M1 Activity: M1-CHO cells, calcium mobilization (FLIPR)
T4 construct: expressed in transfected cells; host or cells: CHO (M1-CHO)
T4 sequence (P11229 1-460): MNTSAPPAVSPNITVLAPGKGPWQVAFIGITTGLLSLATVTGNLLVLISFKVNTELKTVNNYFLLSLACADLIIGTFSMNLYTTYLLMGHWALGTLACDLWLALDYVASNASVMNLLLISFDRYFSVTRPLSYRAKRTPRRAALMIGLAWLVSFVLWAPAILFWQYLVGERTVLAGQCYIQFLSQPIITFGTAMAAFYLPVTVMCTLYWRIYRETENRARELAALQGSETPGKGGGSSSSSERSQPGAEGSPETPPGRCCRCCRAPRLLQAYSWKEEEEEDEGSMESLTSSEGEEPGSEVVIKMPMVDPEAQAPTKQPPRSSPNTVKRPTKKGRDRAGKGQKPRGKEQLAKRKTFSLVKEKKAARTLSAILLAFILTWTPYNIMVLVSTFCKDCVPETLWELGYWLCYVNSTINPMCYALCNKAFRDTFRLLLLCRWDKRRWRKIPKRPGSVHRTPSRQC
In short: as §1

[1] = 100% efficacy = maximum response obtained with the Carbachol control
[2] = 100% efficacy is the maximum response obtained with the Carbachol control

| SMILES | Emax (M4 muscarinic receptor; [1]) | M4 Activity (M4 muscarinic receptor) | Emax (M2 muscarinic receptor; [1]) | M2 Activity (M2 muscarinic receptor) | Emax (M3 muscarinic receptor; [1]) | M3 Activity (M3 muscarinic receptor) | Emax (M1 muscarinic receptor; [1]) | M1 Activity (M1 muscarinic receptor) | Emax (M4 muscarinic receptor; [2]) | Emax (M2 muscarinic receptor; [2]) | Emax (M3 muscarinic receptor; [2]) | Emax (M1 muscarinic receptor; [2]) | M4 Efficacy (M4 muscarinic receptor; [2]) | M2 Efficacy (M2 muscarinic receptor; [2]) | M3 Efficacy (M3 muscarinic receptor; [2]) | M1 Efficacy (M1 muscarinic receptor; [2]) |
| --- | --- | --- | --- | --- | --- | --- | --- | --- | --- | --- | --- | --- | --- | --- | --- | --- |
| COc1ccccc1C1CC2CCC(C1)N2C1CCOCC1 (stereo not shown) [Compound 37] | < 25% | + (activity was measured to be greater than 5.0 μM) | < 25% | + (activity was measured to be greater than 5.0 μM) | < 25% | + (activity was measured to be greater than 5.0 μM) | < 25% | + (activity was measured to be greater than 5.0 μM) |  |  |  |  |  |  |  |  |
| CNC(=O)c1ccc(-c2ccc(OC)c(C3CCN([C@H]4C[C@H]5CC[C@H]4C5)CC3)c2)cc1 [Compound 388] |  | +++ (activity was measured to be less than 1.0 μM) |  | + (activity was measured to be greater than 5.0 μM) |  | + (activity was measured to be greater than 5.0 μM) |  | + (activity was measured to be greater than 5.0 μM) | 25 to 100% | < 25% | < 25% | < 25% |  |  |  |  |
| COc1ccccc1C1(C#N)CCN(CC2CCOCC2)CC1 [Compound 373] |  | + (activity was measured to be greater than 5.0 μM) |  | + (activity was measured to be greater than 5.0 μM) |  | + (activity was measured to be greater than 5.0 μM) |  | + (activity was measured to be greater than 5.0 μM) | 25 to 100% | < 25% | < 25% | < 25% |  |  |  |  |
| c1ccc(-c2ccccc2C2CCN([C@H]3C[C@H]4CC[C@H]3C4)CC2)cc1 [Compound 110] | 25 to 100% | ++ (activity was measured to be from 1.0 μM to 5.0 μM) | < 25% | + (activity was measured to be greater than 5.0 μM) | < 25% | + (activity was measured to be greater than 5.0 μM) | < 25% | + (activity was measured to be greater than 5.0 μM) |  |  |  |  |  |  |  |  |
| C=Cc1ccc(OC)c(C2CCN([C@@H]3C[C@H]4CC[C@H]3C4)CC2)c1 [Compound 404] |  | +++ (activity was measured to be less than 1.0 μM) |  | + (activity was measured to be greater than 5.0 μM) |  | + (activity was measured to be greater than 5.0 μM) |  | ++ (activity was measured to be from 1.0 μM to 5.0 μM) | 25 to 100% | < 25% | < 25% | 25 to 100% |  |  |  |  |
| Fc1cccc(-c2ccccc2C2CCN([C@H]3C[C@H]4CC[C@H]3C4)CC2)c1 [Compound 274] | 25 to 100% | ++ (activity was measured to be from 1.0 μM to 5.0 μM) | < 25% | + (activity was measured to be greater than 5.0 μM) | < 25% | + (activity was measured to be greater than 5.0 μM) | < 25% | + (activity was measured to be greater than 5.0 μM) |  |  |  |  |  |  |  |  |
| COc1ccc(F)cc1C1CCN(C[C@@H]2C[C@H]3C=C[C@H]2C3)CC1 [Compound 167] | 25 to 100% | +++ (activity was measured to be less than 1.0 μM) | < 25% | + (activity was measured to be greater than 5.0 μM) | < 25% | + (activity was measured to be greater than 5.0 μM) | 25 to 100% | ++ (activity was measured to be from 1.0 μM to 5.0 μM) |  |  |  |  |  |  |  |  |
| CCC1(O)CCC(N2CCC(c3cc(Cl)ccc3OC)CC2)CC1 (stereo not shown) [Compound 324] | 25 to 100% | +++ (activity was measured to be less than 1.0 μM) | < 25% | + (activity was measured to be greater than 5.0 μM) | < 25% | + (activity was measured to be greater than 5.0 μM) | < 25% | + (activity was measured to be greater than 5.0 μM) |  |  |  |  |  |  |  |  |
| FC(F)(F)c1ccccc1C1CCN(C2CC3CCC(C3)C2)CC1 (stereo not shown) [Compound 343] | 25 to 100% | +++ (activity was measured to be less than 1.0 μM) | < 25% | + (activity was measured to be greater than 5.0 μM) | < 25% | + (activity was measured to be greater than 5.0 μM) | 25 to 100% | + (activity was measured to be greater than 5.0 μM) |  |  |  |  |  |  |  |  |
| COc1ccc(F)cc1C1CCN([C@H]2C[C@H]3CC[C@H]2C3)CC1 [Compound 78] | 25 to 100% | +++ (activity was measured to be less than 1.0 μM) | < 25% | + (activity was measured to be greater than 5.0 μM) | < 25% | + (activity was measured to be greater than 5.0 μM) | 25 to 100% | ++ (activity was measured to be from 1.0 μM to 5.0 μM) |  |  |  |  |  |  |  |  |
| O=C(COc1ccccc1C1CCN([C@H]2C[C@H]3CC[C@H]2C3)CC1)c1ccccc1Cl [Compound 170] | 25 to 100% | +++ (activity was measured to be less than 1.0 μM) | < 25% | + (activity was measured to be greater than 5.0 μM) | < 25% | + (activity was measured to be greater than 5.0 μM) | < 25% | + (activity was measured to be greater than 5.0 μM) |  |  |  |  |  |  |  |  |
| COc1ccc(Cl)cc1C1CCN(C2CCC(=NOCc3ccccc3)CC2)CC1 (stereo not shown) [Compound 396] |  | +++ (activity was measured to be less than 1.0 μM) |  | + (activity was measured to be greater than 5.0 μM) |  | + (activity was measured to be greater than 5.0 μM) |  | + (activity was measured to be greater than 5.0 μM) |  |  |  |  | ++ (efficacy was calculated to be from 100% to 25%) | + (efficacy was calculated to be less than 25%) | + (efficacy was calculated to be less than 25%) | ++ (efficacy was calculated to be from 100% to 25%) |
| COc1ccc(F)cc1C1CCN(C2CCOCC2)CC1 [Compound 193] | 25 to 100% | +++ (activity was measured to be less than 1.0 μM) | 25 to 100% | + (activity was measured to be greater than 5.0 μM) | < 25% | + (activity was measured to be greater than 5.0 μM) | 25 to 100% | ++ (activity was measured to be from 1.0 μM to 5.0 μM) |  |  |  |  |  |  |  |  |
| COc1ccccc1C1CCN(C2CCOCC2)CC1O (stereo not shown) [Compound 235] | 25 to 100% | + (activity was measured to be greater than 5.0 μM) | < 25% | + (activity was measured to be greater than 5.0 μM) | < 25% | + (activity was measured to be greater than 5.0 μM) | 25 to 100% | + (activity was measured to be greater than 5.0 μM) |  |  |  |  |  |  |  |  |
